Where a name gives a salt, the structure may show the parent alone.
Molecular target: S. aureus GyrB ATPase (Staphylococcus aureus, UniProt P0A0K8)
Experiment: S. aureus GyrB ATPase inhibition (ammonium molybdate/malachite green phosphate detection)
Type: biochemical
Conditions: compound at 1 μM; inhibition of S. aureus GyrB ATPase; read-out: Percent Inhibition (1 μM)
Protocol: S. aureus GyrB ATPase Inhibition Activity: Compounds may be tested for inhibition of S. aureus GyrB ATPase activity using an ammonium molybdate/malachite green-based phosphate detection assay (Lanzetta, P. A., L. J. Alvarez, P. S. Reinach, and O. A. Candia, 1979, 100: 95-97). Assays can be performed in multiwell plates in 30 μl reactions containing: 50 mM Hepes buffer pH 7.5, 75 mM ammonium acetate, 8.0 mM magnesium chloride, 0.5 mM ethylenediaminetetraacetic acid, 5% glycerol, 1.0 mM 1,4-Dithio-DL-threitol, 200 nM bovine serum albumin, 1.0 μg/ml sheared salmon sperm DNA, 250 pM E. coli GyrA, 250 pM S. aureus GyrB, 250 μM ATP, and compound in dimethylsulfoxide. Reactions can be quenched with 30 μl of ammonium molybdate/malachite green detection reagent containing 1.2 mM malachite green hydrochloride, 8.5 mM ammonium molybdate tetrahydrate, and 1 M hydrochloric acid. Plates can be read in an absorbance plate reader at 650 nm and percent inhibition values can be calculated using dimethylsulfoxide (2%)-containing reactions as 0% inhibition and EDTA-containing ([…]) reactions as 100% inhibition controls. An IC50 measurement of compound potency for each compound can be determined from reactions performed in the presence of 10 different compound concentrations.

S. aureus GyrB ATPase, sequence (P0AES4 whole entry): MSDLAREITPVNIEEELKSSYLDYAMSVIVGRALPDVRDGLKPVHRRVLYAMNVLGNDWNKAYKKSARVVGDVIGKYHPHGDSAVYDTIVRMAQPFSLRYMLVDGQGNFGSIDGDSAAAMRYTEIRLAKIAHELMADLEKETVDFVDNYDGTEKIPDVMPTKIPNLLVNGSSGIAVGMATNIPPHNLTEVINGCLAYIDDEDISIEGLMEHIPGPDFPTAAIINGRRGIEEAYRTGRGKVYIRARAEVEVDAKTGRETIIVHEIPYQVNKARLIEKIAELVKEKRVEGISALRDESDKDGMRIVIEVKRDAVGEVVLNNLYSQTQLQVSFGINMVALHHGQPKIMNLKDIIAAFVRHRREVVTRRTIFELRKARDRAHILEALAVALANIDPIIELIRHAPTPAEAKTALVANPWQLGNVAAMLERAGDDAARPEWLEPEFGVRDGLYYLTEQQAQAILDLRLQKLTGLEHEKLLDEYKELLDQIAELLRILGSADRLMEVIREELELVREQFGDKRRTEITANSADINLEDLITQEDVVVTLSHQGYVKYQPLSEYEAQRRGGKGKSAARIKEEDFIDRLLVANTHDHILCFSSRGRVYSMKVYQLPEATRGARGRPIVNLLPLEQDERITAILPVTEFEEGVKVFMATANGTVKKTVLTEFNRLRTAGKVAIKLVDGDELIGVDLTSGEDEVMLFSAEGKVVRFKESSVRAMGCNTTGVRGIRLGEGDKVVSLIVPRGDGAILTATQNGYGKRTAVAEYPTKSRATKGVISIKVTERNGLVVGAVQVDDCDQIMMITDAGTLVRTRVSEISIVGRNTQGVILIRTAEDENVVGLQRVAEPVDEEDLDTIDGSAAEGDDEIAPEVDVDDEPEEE
S. aureus GyrB ATPase, sequence (P0A0K8 whole entry): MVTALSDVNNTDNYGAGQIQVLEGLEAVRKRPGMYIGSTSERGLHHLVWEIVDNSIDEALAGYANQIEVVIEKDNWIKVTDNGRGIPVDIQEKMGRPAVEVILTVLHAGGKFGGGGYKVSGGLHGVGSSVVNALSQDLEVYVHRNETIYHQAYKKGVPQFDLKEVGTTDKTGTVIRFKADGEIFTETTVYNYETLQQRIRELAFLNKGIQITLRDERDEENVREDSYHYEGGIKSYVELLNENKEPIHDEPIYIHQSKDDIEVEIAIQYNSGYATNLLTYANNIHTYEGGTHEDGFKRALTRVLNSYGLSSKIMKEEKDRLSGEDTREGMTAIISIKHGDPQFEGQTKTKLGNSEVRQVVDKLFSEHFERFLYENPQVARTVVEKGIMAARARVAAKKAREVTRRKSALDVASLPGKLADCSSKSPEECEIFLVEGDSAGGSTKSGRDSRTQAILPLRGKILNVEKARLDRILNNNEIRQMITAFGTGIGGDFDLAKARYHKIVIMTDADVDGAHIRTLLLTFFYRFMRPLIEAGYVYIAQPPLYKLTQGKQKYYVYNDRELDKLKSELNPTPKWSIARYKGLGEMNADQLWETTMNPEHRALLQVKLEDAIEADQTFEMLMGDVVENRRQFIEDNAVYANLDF

SMILES: CCNC(=O)Nc1cc(-c2nc(C(F)(F)F)cs2)c(-c2ccc3c(=O)c(C(=O)NCCCOP(=O)(O)O)cn(CCC(C)C)c3c2)cn1 [Example 16, 3-({[7-{6-[(ethylcarbamoyl)amino]-4-[4-(trifluoromethyl)-1,3-thiazol-2-yl]pyridin-3-yl}-1-(3-methylbutyl)-4-oxo-1,4-dihydroquinolin-3-yl]carbonyl}amino)propyl dihydrogen phosphate]
- inhibition at 1 µM: 100%

SMILES: CCNC(=O)Nc1cc(-c2nc(C(F)(F)F)cs2)c(-c2ccc3c(c2)c(=O)c(C(=O)O)cn3[C@H](COP(=O)(O)O)C(C)(C)C)cn1 [Example 3, (S)-1-(3,3-dimethyl-1-(phosphonooxy)butan-2-yl)-6-(6-(3-ethylureido)-4-(4-(trifluoromethyl)thiazol-2-yl)pyridin-3-yl)-4-oxo-1,4-dihydroquinoline-3-carboxylic acid]
- inhibition at 1 µM: 108%

SMILES: CCNC(=O)Nc1cc(-c2nc(C(F)(F)F)cs2)c(-c2ccc3c(c2)c(=O)c(C(=O)OCCOP(=O)(O)O)cn3C2CC2)cn1 [Example 18, 2-(phosphonooxy)ethyl 1-cyclopropyl-6-(6-(3-ethylureido)-4-(4-(trifluoromethyl)thiazol-2-yl)pyridin-3-yl)-4-oxo-1,4-dihydroquinoline-3-carboxylate hydrochloride]
- inhibition at 1 µM: 104%

SMILES: CCNC(=O)Nc1cc(-c2nc(C(F)(F)F)cs2)c(-c2ccc3c(c2)c(=O)c(C(=O)N(C)C)cn3C[C@@H]2CCCNC2)cn1 [Example 32, 6-{6-[(Ethylcarbamoyl)amino]-4-[4-(trifluoromethyl)-1,3-thiazol-2-yl]pyridin-3-yl}-N,N-dimethyl-4-oxo-1-[(3R)-piperidin-3-ylmethyl]-1,4-dihydroquinoline-3-carboxamide]
- inhibition at 1 µM: 104%

SMILES: CCNC(=O)Nc1cc(-c2nc(C(F)(F)F)cs2)c(-c2ccc3c(c2)c(=O)c(C(=O)OCCOC(=O)C(C)C)cn3C(COC)COC)cn1 [Example 43, 2-(isobutyryloxy)ethyl 1-(1,3-dimethoxypropan-2-yl)-6-(6-(3-ethylureido)-4-(4-(trifluoromethyl)thiazol-2-yl)pyridin-3-yl)-4-oxo-1,4-dihydroquinoline-3-carboxylate]
- inhibition at 1 µM: 103%

SMILES: CCNC(=O)Nc1cc(-c2nc(C(F)(F)F)cs2)c(-c2cc3c(=O)c(C(=O)O)cn(C4CC4)c3cc2Cl)cn1 [Example 54, 7-chloro-1-cyclopropyl-6-(6-(3-ethylureido)-4-(4-(trifluoromethyl)thiazol-2-yl)pyridin-3-yl)-4-oxo-1,4-dihydroquinoline-3-carboxylic acid]
- inhibition at 1 µM: 126%

SMILES: CCNC(=O)Nc1cc(-c2nc(C(F)(F)F)cs2)c(-c2ccc3c(c2)c(=O)c(C(=O)N(C)C)cn3CCN(C)C)cn1 [Example 29, 1-[2-(Dimethylamino)ethyl]-6-{6-[(ethylcarbamoyl)amino]-4-[4-(trifluoromethyl)-1,3-thiazol-2-yl]pyridin-3-yl}-N,N-dimethyl-4-oxo-1,4-dihydroquinoline-3-carboxamide]
- inhibition at 1 µM: 93%

SMILES: CCNC(=O)Nc1cc(-c2nc(C(F)(F)F)cs2)c(-c2ccc3c(=O)c(C(=O)NCCCOP(=O)(O)O)cn(CC4CC4)c3c2)cn1 [Example 15, phosphate hydrochloride]
- inhibition at 1 µM: 76%

SMILES: CCNC(=O)Nc1cc(-c2nc(-c3ccccc3)cs2)c(-c2cc3c(=O)c(C(=O)O)cn(CCN(C)C)c3cc2OCCN(CC)CC)cn1 [Example 46, 7-(2-(diethylamino)ethoxy)-1-(2-(dimethylamino)ethyl)-6-(6-(3-ethylureido)-4-(4-phenylthiazol-2-yl)pyridin-3-yl)-4-oxo-1,4-dihydroquinoline-3-carboxylic acid]
- inhibition at 1 µM: 108%

SMILES: CCNC(=O)Nc1cc(-c2nc(C(F)(F)F)cs2)c(-c2ccc3c(c2)c(=O)c(C(=O)OCOC(C)=O)cn3C(COC)COC)cn1 [Example 38, Acetoxymethyl 1-(1,3-dimethoxypropan-2-yl)-6-(6-(3-ethylureido)-4-(4-(trifluoromethyl)thiazol-2-yl)pyridin-3-yl)-4-oxo-1,4-dihydroquinoline-3-carboxylate]
- inhibition at 1 µM: 105%
